Test results published in PMC11087268, “A folate inhibitor exploits metabolic differences in Pseudomonas aeruginosa for narrow-spectrum targeting” (Nature Microbiology, 2024).
≈ marks a conversion by molar mass, not a printed value.

Experiments:
[1] = tested on: Escherichia coli ATCC BAA-198; test: MIC (WuXi, Mueller–Hinton broth) against E. coli ATCC BAA-198; assay type: cell-based; conditions: ATCCBAA198
Procedure: Bacterial colonies (4–8) of strains of interest were vortexed in saline and adjusted to an OD600 of 0.2. Strains were diluted 1:200 into CAMHB media in 96-well plates. Antibiotics were serially diluted 1:3 in DMSO, and 1 μl of each dilution was added to bacteria. The plates were incubated for 18–20 h at 37 °C before observation.

[2] = tested on: Pseudomonas aeruginosa PA14; test: MIC against P. aeruginosa PA14 in LB broth; assay type: cell-based
Procedure: (§1) Overnight cultures were diluted 1:150 in LB broth and added to a 96-well plate. Antibiotics were serially diluted 1:2 and added to columns of the 96-well plate and grown at 37 °C with continuous shaking. Cell growth was measured using optical density at 600 nm (OD600). MIC assays were performed in either BioTek Synergy HT or Tecan InfiniteM200 Pro microplate readers.

[3] = biological target: T1, E. coli DHFR (FolA) (Escherichia coli, UniProt P0ABQ4); test: In vitro DHFR activity, purified E. coli FolA; assay type: biochemical; conditions: for fractional initial velocity: E. coli FolA
T1 construct: purchased Genscript
Procedure: As described previously, purified E. coli dihydrofolate reductase (FolA) was purified by Genscript. Enzyme activity was measured on a QuantaMaster 40 spectrophotometer (Photon Technology) using the DHFR reductase assay kit with slight modifications. E. coli FolA was diluted 1:1,000 into 1× assay buffer. Of this mixture, 100 μl with or without compound was added to a BRAND UV cuvette (Sigma-Aldrich BR759200) and sample transmitted light intensity at 340 nm was measured for 100 s at 1 kHz sampling. Readings were averaged for every 1 Hz and the activity of each sample was calculated from the slope (β) of a linear regression of the log-transformed intensity measurements on MATLAB R2022B. To account for enzyme stability, measurements were normalized to a standard condition (60 μM NADPH and 100 μM DHF) measured immediately before the sample of interest. The relative activity was calculated as (βsample − βnoEnzyme)/(βstandard − βnoEnzyme).

[4] = tested on: P. aeruginosa PA14 mexB transposon mutant; test: microbe, parasite or virus in culture; assay type: cell-based; conditions: Pseudomonas aeruginosa
Procedure: as §1
(§2) P. aeruginosa PA14 transposon mutants were generated by the Ausubel Lab (https://pa14.mgh.harvard.edu/cgi-bin/pa14/home.cgi)[67]. The MICs of fluorofolin and TMP against strains with disrupted MexA, MexB and OprM were determined as above and compared to the parental strain. As transposon mutants in MexB were represented twice in this collection, the MIC was confirmed across both mutant strains.

[5] = tested on: P. aeruginosa PA14 oprM transposon mutant; test: microbe, parasite or virus in culture; assay type: cell-based; conditions: Pseudomonas aeruginosa
Procedure: as §1, §2

[6] = tested on: P. aeruginosa PA14 mexA transposon mutant; test: microbe, parasite or virus in culture; assay type: cell-based; conditions: Pseudomonas aeruginosa
Procedure: as §1, §2

T1 sequence (P0ABQ4 whole entry): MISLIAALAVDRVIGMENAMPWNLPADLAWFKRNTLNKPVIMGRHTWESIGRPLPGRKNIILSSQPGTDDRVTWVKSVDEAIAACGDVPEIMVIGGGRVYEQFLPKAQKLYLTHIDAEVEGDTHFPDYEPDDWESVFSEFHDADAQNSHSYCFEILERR

Nc1nc(N)c2c(ccc3c2ccn3Cc2ccnc(F)c2)n1 [fluorofolin]
MIC [1]: 7.11 µg/mL (≈ 23.1 µM)
MIC ([2]; Pseudomonas aeruginosa, PA14): 3.1 µg/mL
MIC ([2]; Pseudomonas aeruginosa, PA14, 16 h): 3.12 µg/mL
MIC ([2]; Wildtype PA14, control for each drug stock): 3.1 µg/mL
IC50 [3]: 2.5 ± 1.1 nM
fractional initial velocity ([3]; Fluorofolin 9.91e-5 uM): 1.007
fractional initial velocity ([3]; Fluorofolin 0.000507393 uM): 1.009
fractional initial velocity ([3]; Fluorofolin 0.000792664 uM): 0.7937
fractional initial velocity ([3]; Fluorofolin 0.00101479 uM): 0.7819
fractional initial velocity ([3]; Fluorofolin 0.00152192 uM): 0.9341
fractional initial velocity ([3]; Fluorofolin 0.00158533 uM): 0.5604
fractional initial velocity ([3]; Fluorofolin 0.00202957 uM): 0.702
fractional initial velocity ([3]; Fluorofolin 0.00405914 uM): 0.5491
fractional initial velocity ([3]; Fluorofolin 0.00608766 uM): 0.1317
fractional initial velocity ([3]; Fluorofolin 0.00634131 uM): 0.5169
fractional initial velocity ([3]; Fluorofolin 0.00811828 uM): 0.197
fractional initial velocity ([3]; Fluorofolin 0.0121753 uM): 0.07555
fractional initial velocity ([3]; Fluorofolin 0.0126826 uM): 0.0002002
fractional initial velocity ([3]; Fluorofolin 0.0162366 uM): 0.3634
fractional initial velocity ([3]; Fluorofolin 0.0253653 uM): 0.0004461
fractional initial velocity ([3]; Fluorofolin 0.0324731 uM): -0.0327
MIC [4]: 1.5 µg/mL
MIC [5]: 1.5 µg/mL
MIC [6]: 1.5 µg/mL
